# According to patent publication US20110130374A1, “Small Pyrimidine Derivatives and Methods of Use Thereof” (BIOSEARCH(2007) LTD., priority 2009, published 2011):
# Like-named read-outs stand apart in the source and are kept apart here.
# Tests used:
# [1] = system: A375 melanoma cells; experiment: Transwell cell migration assay, A375 melanoma cells; type: cell-based; details: Homo sapiens, A-375
# Description: A375 melanoma cells (CRL-1619, American Type Culture Collection (“ATCC”), Manassas Va., USA)) grown in RPMI medium supplement with 10% FBS were starved for 24 hours in FBS free medium. After starvation of 24 hr, 5×10^4 cells in FBS free medium were placed in the upper chamber of 24-well, Transwell apparatus (CORNING TRANS WELL® polycarbonate membrane inserts, 5 μm pore size) with solvent (DMSO/PEG400) or different concentrations of Compound 1 (PRT7000467), Compound 2 (PRT7041128), or Compound 3 (PRT7081582). Medium containing FBS and compounds was added to the bottom chamber. Twenty-four hours later the melanoma cells from the upper chamber were removed with a cotton swab. Cells that migrated to the lower side of the membrane were stained with Calcein-AM (Sigma) and images were taken with fluorescence microscope. The number of migrating cells was quantified by ImageJ software and the IC50 values were calculated using Prism software (Graphpad) (FIG. 1A,1E).
# A375 (melanoma) (CRL-1619, ATCC, Manassas, Va., USA), A431 (melanoma) (CRL-2592, ATCC, Manassas, Va., USA), A2058 (melanoma) (CRL-11147, ATCC, Manassas, Va., USA), MDA-MB-231 (breast) (HTB-26, ATCC, Manassas, Va., USA), LS175T (colon) (ATCC, Manassas, Va., USA), HT29 (colon) (HTB-38, ATCC, Manassas, Va., USA), PC3 (prostate) (CRL-1435, ATCC, Manassas, Va., USA), Panc03.27 (pancreatic) (ATCC, Manassas, Va., USA), 4T1 (breast-mouse) (CRL-2539, ATCC, Manassas. Va., USA), D122 (lung-mouse) (the Weizmann Institute of Science), D122-luc (lung-mouse) (the Weizmann Institute of Science), and B16 F10.9 (melanoma-mouse) cells (Caliper Life Sciences, Hopkinton Mass.), were grown in RPMI medium supplemented with 10% FBS. HUVEC cells were grown in Endothelial Cell Growth Medium 2 and THP1 cells were grown in RPMI medium supplemented with 10% FBS, 2 mM L-Glutamine, 1.5 g/L sodium bicarbonate, 10 mM Hepes, 1 mM sodium pyruvate, 4.5 g/L glucose and 0.05 mM 2-mercaptoethanol. The cells were starved for 24 hours in medium without FBS. At the end of the starvation, 5×10^4 cells in medium without FBS were placed in the upper chamber of 24-well, Transwell apparatus (CORNING TRANSWELL® polycarbonate membrane inserts, 5 μm pore size for […] and THP1 cells and 8 μm pore size for all the other cells) with solvent (DMSO/PEG400) or different concentrations of compound 1 (PRT7000467). Medium with FBS and compounds was added to the bottom chamber. Twenty-four hours later the cells from the upper chamber were removed with a cotton swab. Cells that migrated to the lower side of the membrane were stained with Calcein-AM (Sigma) and images were taken with a fluorescence microscope. The number of migrating cells was quantified by ImageJ software and the IC50 values were calculated using Prism software (Graphpad).
# [2] = system: oxazolone-induced DTH; experiment: Oxazolone-induced delayed-type hypersensitivity (DTH), ear swelling; type: in vivo, BALB/c mice; details: oral, 1 hour before oxazolone challenge; compared with the control (FIG. 5)
# From the text: Anti inflammatory assay A delayed-type hypersensitivity (DTH) reaction is an expression of cell-mediated immunity and plays a major role in the pathology and chronicity of many inflammatory disorders. Delayed-type hypersensitivity (DTH) reactions can be induced by various allergens, including oxazolone, 2,4-dinitrofluorobenzene (DNFB) and sheep red blood cells (SRBCs). One of the most characteristic DTH phenomenons is contact hypersensitivity, which is characterized by swelling and by increased tissue levels of cytokines. Contact hypersensitivity (CHS) is a T cell-mediated immune reaction in response to cutaneous sensitization and challenge with reactive haptens that are capable of binding directly to soluble and cell-associated proteins and recognized by T cells in the context of self-MHC products. The cells that recognize antigen-protein complex in the skin are the Langerhans cells (LCs). […]
# Ear swelling response will be determined by ear thickness measured with a micrometer before and 24 hours after oxazolone challenge and reported as the mean change in ear thickness (ΔT±S.E.M.). Percent suppression of ear swelling response will be calculated as % suppression=[1−(ΔT of sensitized mice exposed to experimental treatment/ΔT of sensitized mice exposed to vehicle treatment)]×100.
# [3] = system: A375 melanoma cells; experiment: Soft agar colony formation, A375 melanoma cells; type: cell-based; details: 14 days, MTT; for soft agar colony formation: A375 melanoma cells
# Description: The assay was done using CYTOSELECT™ 96-Well In Vitro Tumor Sensitivity Assay kit from Cell Biolabs, Inc. (San-Diego, Calif.). The cells were grown for 14 days with RPMI and 10% FBS medium in the presence of the indicated concentration of Compound 1 (PRT7000467). The quantification of the colony formation on soft agar was done using MTT reagent after solubilization of the agar (all the materials are supplied in the kit). The IC50 value was calculated using Prism software.
# [4] = A375 melanoma cells, Transwell 5 μm pore, 24 h, Example 3 (FIGS. 1A, 1E), read-out: IC50 in the migration assay
structure (smiles),measurement,setting,value
Cc1cc(C)nc(NS(=O)(=O)c2ccc(NC(=O)/C(=C\c3cccs3)NC(=O)c3cccs3)cc2)n1 [Compound 1],IC50,"[1]; A375, Melanoma, reexamined, Table 1, 6 repeats, read-out: IC50 (μM), Transwell migration",1.7 µM
same,IC50,[1]; [4],5.7 µM
same,anti-inflammatory activity (ear swelling response),[2],same anti-inflammatory activity as the control
same,LD50 in the soft agar colony formation assay,[3]; A375 cells,2.8 to 5.6 µM
same,soft agar colony formation,[3],inhibits soft agar colony formation
Cc1cc(S(=O)(=O)Nc2ncccn2)ccc1NC(=O)/C(=C\c1cccs1)NC(=O)c1cccs1 [Compound 3],IC50,[1]; [4],1.41 µM
same,anti-inflammatory activity (ear swelling response),[2],same anti-inflammatory activity as the control
same,soft agar colony formation,[3],inhibit soft agar colony formation
